From patent publication US20220143041A1, “COMBINED THERAPY FOR NMDAR ANTAGONIST-RESPONSIVE NEUROPSYCHIATRIC DISORDERS” (Glytech LLC, priority 2017, published 2022)
“Also recorded” adds a separate entry of the source.

Experiments:
Male BalbC/J mice = assay: Forced swim test (FST), immobility time; assay type: in vivo; details: for FST additional beneficial effects in combination with DCS / FST effect of combined antidepressant and DCS vs either agent alone / DCS alone: agent (dose) + DCS 300 mg/kg IP, FIG. 2; for Immobility time in the rodent forced swim test, Mean: 6-min test, IP 30 min prior, DCS 300 mg/kg, mirtazapine or isomer 5 mg/kg, alone or combined; for Effect on immobility in the forced swim test vs control: DCS alone
rodent = details: Freynhagen et al.; cited from earlier work
mice [1] = assay: Marble burying test; assay type: in vivo; details: for Marble burying effect relative to racemic mirtazapine: 1-10 mg/kg IP
Text: Distance traveled during the test was captured by cameras and quantified using Video Tracker Software (ViewPoint Life Sciences Software, France). At the end of the test mice were removed from the cages and the number of unburied marbles was counted. A marble was considered buried if it was covered at least two thirds with bedding. An effect was considered significant if p<0.05.
from the cages and the number of unburied marbles was counted. A marble was considered buried if it was covered at least two thirds with bedding.
The following compounds were used. […] This compound was dissolved in 20% cyclodextrin and administered IP 30 min prior to test at a dose volume of 10 ml/kg. • Combination DSC (300 mg/kg)+Mirtazapine ([…]) was administered IP as a cocktail in a single injection 30 minutes prior to test at a dose volume of 10 ml/kg.
Mirtazapine is a racemic mix of separate R(−) and S(+) isomers. A follow-up study evaluated the relative effects of the two isomers independently. Methods are the same as for Example 3.

[2] = test system: symptoms of major depression; details: 250 mg/day; cited from earlier work
[3] = Pharmacokinetics of D-cycloserine in humans (literature)
[4] = cited from earlier work
NMDAR = target: T1, NMDAR (Homo sapiens, UniProt Q05586); details: in vivo; cited from earlier work
T1 construct: from tissue; host or cells: endogenous receptors of the treated subject (brain), in vivo

[5] = Pharmacokinetics of D-cycloserine in rodents (plasma level, UPLC/MS/MS); assay type: in vivo; details: mice
Method: For this study, male C57BL/6J mice (8 weeks old) from Jackson Laboratories (Bar Harbor, Me.) were used.
For each treatment group a total of 12 mice were dosed: 4 mice were collected at 30, 60 and 120 min. Mean plasma level was computed over the 30-60 min time period.

Male C57BL/6J mice = assay: Open field test, locomotor activity; details: vs vehicle
mice [6] = details: mice (Carlsson et al.); cited from earlier work
[7] = FIG. 4, IP, paroxetine 5, mirtazapine and S-mirtazapine 1, 2.5, 5, 10, R-mirtazapine 10 mg/kg
[8] = 500 mg, corresponding to AUC over 24 hr (Zhu et al.)
[9] = humans, 250 mg PO every 12 hrs (Park et al.)
[10] = humans, 500 mg, fasting (Zhu et al.)
[11] = patients, mean dose 8.8 mg/kg, mostly 500 mg/day (Hung et al.)
[12] = FIG. 3, IP 30 min prior, paroxetine 5, mirtazapine 5.5, D-cycloserine 30 and 300 mg/kg, combination 300 + 5.5 mg/kg

COc1ccc(C(CN(C)C)C2(O)CCCCC2)cc1 (centres unmarked) [venlafaxine]
FST additional beneficial effects in combination with DCS (Male BalbC/J mice): addition beneficial effects

CN[C@H]1CC[C@@H](c2ccc(Cl)c(Cl)c2)c2ccccc21 [sertraline]
FST additional beneficial effects in combination with DCS (Male BalbC/J mice): addition beneficial effects | FST effect of combined antidepressant and DCS vs either agent alone / DCS alone (Male BalbC/J mice): significantly larger than with either agent alone; also recorded: effects greater than DCS alone

CNCCC(Oc1ccc(C(F)(F)F)cc1)c1ccccc1 (centres unmarked) [fluoxetine]
FST additional beneficial effects in combination with DCS (Male BalbC/J mice): addition beneficial effects

CN1CCN2c3ncccc3Cc3ccccc3[C@H]2C1 [S-mirtazapine, S(+)mirtazapine]
Effect in a rodent nociception assay (rodent): pro-nociceptive effects | Marble burying effect relative to racemic mirtazapine (mice [1]; FIG. 4): significantly more robust | Number of marbles buried compared to vehicle (mice [1]; [7]): significantly reduced | Number of marbles buried, combination with DSC 300 mg/kg vs agent 2.5 mg/kg alone (mice [1]; IP 30 min prior): floor level effects | Immobility time in the rodent forced swim test, Mean (Male BalbC/J mice): 117.60 s

CN1CCN2c3ncccc3Cc3ccccc3[C@@H]2C1 [R-mirtazapine, R(−)mirtazapine]
Effect in a rodent nociception assay (rodent): only anti-nociceptive effects | Marble burying effect relative to racemic mirtazapine (mice [1]; FIG. 4): less robust | Number of marbles buried compared to vehicle (mice [1]; [7]): significantly reduced | Number of marbles buried compared to vehicle (mice [1]; FIG. 4, R-mirtazapine 1, 2.5 and 5 mg/kg IP): did not affect | Relative effects of R- and S-isomers of mirtazapine on marble burying (FIG. 4 legend) (mice [1]; FIG. 4 legend): greater effects of R- vs S-isomer | FST reduction in immobility, R- vs racemic mirtazapine (Male BalbC/J mice; 5 mg/kg, in absence and presence of DCS, not statistically different): numerically greater | Immobility time in the rodent forced swim test, Mean (Male BalbC/J mice): 68.40 s

N[C@@H]1CON=C1O [DCS, 3-Isoxazolidinone, 4-amino-, (4R)-(9CI)]
Effect on symptoms of major depression [2]: without significant effect | Mean plasma level ([3]; 250 mg PO every 12 hrs, corresponding to AUC over 12 hrs (Park et al.)): 20.2 microgram/mL | Median sustained plasma level [3, 8]: 8.9 microgram/mL | Sustained plasma level, range [3, 8]: 6.8-14.7 microgram/mL | Mean AUC over 12 hrs [4, 9]: 242.3 µg·h/mL | Mean Cmax [4, 9]: 24.9 microgram/mL | AUC over 24 hr, range [4, 10]: 163-352 microgram-hr/mL | Cmax, range [4, 10]: 12.1-30.6 microgram/mL | Median AUC over 24 hr [4, 10]: 214 microgram-hr/mL | Median Cmax [4, 10]: 14.8 microgram/mL | Sustained plasma level following 500 mg administration ([4]; humans, summary of PK studies): below 25 microgram/mL | DCS concentration at 2 hr after dosing [4, 11]: 19.7 microgram/mL | DCS concentration at 6 hr after dosing [4, 11]: 18.1 microgram/mL | Number of marbles buried compared to vehicle (mice [1]; [12]): did not affect | Plasma concentrations associated with antagonist effects (NMDAR): > 25 µg/mL | Plasma concentrations associated with primarily agonist effects (NMDAR): < 10 µg/mL | Plasma levels with increased liability for toxicity (NMDAR): > 35000 ng/mL | Immobility time in the rodent forced swim test, Mean (Male BalbC/J mice): 42.08 s | Effect on immobility in the forced swim test vs control (Male BalbC/J mice; 30 mg/kg (FIG. 1, PO)): no significant effect | Effect on immobility in the forced swim test vs control (Male BalbC/J mice; doses of 100 mg/kg or above (FIG. 1, PO)): statistically significant (p<0.001) reduction | Mean plasma levels over 30-60 min ([5]; D-cycloserine 30 mg/kg IP): below 25 microgram/mL | Mean plasma levels over 30-60 min ([5]; D-cycloserine 30 mg/kg IP, listed as D-cycloserine): 24.89 microgram/mL | Mean plasma levels over 30-60 min ([5]; D-cycloserine 100 mg/kg IP): 74.92 microgram/mL | Mean plasma levels over 30-60 min ([5]; D-cycloserine 500 mg/kg IP): 375.44 microgram/mL | Mean plasma levels over 30-60 min ([5]; D-cycloserine 1000 mg/kg IP): 510.73 microgram/mL | MTD ([5]; male, C57BL/6J, mouse, in vivo, IP, read-out: Maximum tolerated dose): 500 to 1000 mg/kg | Maximum tolerated blood level ([5]; suggested from maximum tolerated dose): approximately 500 ug/mL | Mean distance travelled over 30 min (locomotor activity) (Male C57BL/6J mice; DCS 30 mg/kg IP): 4432.1 | Mean distance travelled over 30 min (locomotor activity) (Male C57BL/6J mice; DCS 30 mg/kg IP, listed as D-cycloserine): not significantly affected | Mean distance travelled over 30 min (locomotor activity) (Male C57BL/6J mice; DCS 300 mg/kg IP): 7588.5 | Mean distance travelled over 30 min (locomotor activity) (Male C57BL/6J mice; DCS 300 mg/kg IP, listed as D-cycloserine): significantly increased | Mean distance travelled over 30 min (locomotor activity) (Male C57BL/6J mice; DCS 1000 mg/kg IP): 9049.8 | Mean distance travelled over 30 min (locomotor activity) (Male C57BL/6J mice; DCS 1000 mg/kg IP, listed as D-cycloserine): significantly increased | Effect on locomotor stimulation by a low dose of MK-801 (mice [6]): potentiated

Fc1ccc([C@@H]2CCNC[C@H]2COc2ccc3c(c2)OCO3)cc1 [Paroxetine]
Number of marbles buried compared to vehicle (mice [1]; [12]): significantly reduced | Number of marbles buried compared to vehicle (mice [1]; [7]): significantly reduced

Cc1ccc(Sc2ccccc2N2CCNCC2)c(C)c1 [vortioxetine]
FST additional beneficial effects in combination with DCS (Male BalbC/J mice): addition beneficial effects

CNCC[C@H](Oc1cccc2ccccc12)c1cccs1 [duloxetine]
FST additional beneficial effects in combination with DCS (Male BalbC/J mice): addition beneficial effects | FST effect of combined antidepressant and DCS vs either agent alone / DCS alone (Male BalbC/J mice): significantly larger than with either agent alone; also recorded: effects greater than DCS alone

CN1CCN2c3ncccc3Cc3ccccc3C2C1 (racemic) [mirtazapine]
Effect in a rodent nociception assay (rodent): biphasic effects | Number of marbles buried compared to vehicle (mice [1]; [12]): significantly reduced | Number of marbles buried compared to vehicle (mice [1]; [7]): significantly reduced | Immobility time in the rodent forced swim test, Mean (Male BalbC/J mice): 92.30 s | FST additional beneficial effects in combination with DCS (Male BalbC/J mice): addition beneficial effects

CC(NC(C)(C)C)C(=O)c1cccc(Cl)c1 (centres unmarked) [bupropion]
FST additional beneficial effects in combination with DCS (Male BalbC/J mice): addition beneficial effects | FST effect of combined antidepressant and DCS vs either agent alone / DCS alone (Male BalbC/J mice): significantly larger than with either agent alone; also recorded: effects greater than DCS alone
